Assay results: patent US10981926B2 (Janssen Pharmaceutica NV, priority 2016, dated 2021)

Key:
Format in all cases: cell-based
[1] = molecular target: T1, F876L mutant Androgen Receptor (AR-F876L) (Homo sapiens (Human), UniProt P10275, F877L); test: LNCaP-AR-F876L ANT reporter assay (antagonist mode); settings: for Emax: read-out: LNCaP-AR-F876L ANT MAX % Inh; for IC50: pIC50 = −Log10(IC50 in Molar), read-out: LNCaP-AR-F876L ANT pIC50 (converted)
[2] = molecular target: T1, F876L mutant Androgen Receptor (AR-F876L); test: LNCaP-AR-F876L AG reporter assay (agonist mode); settings: for Emax: read-out: LNCaP-AR-F876L AG MAX % Stim; for EC50: pEC50 = −Log10(EC50 in Molar), read-out: LNCaP-AR-F876L AG pEC50 (converted)
[3] = molecular target: T2, wild-type Androgen Receptor (AR-wt) (Homo sapiens (Human), UniProt P10275); test: LNCaP-AR-wt ANT reporter assay (antagonist mode); settings: for Emax: read-out: LNCaP-AR-wt ANT MAX % Inh; for IC50: pIC50 = −Log10(IC50 in Molar), read-out: LNCaP-AR-wt ANT pIC50 (converted)
[4] = molecular target: T2, wild-type Androgen Receptor (AR-wt); test: LNCaP-AR-wt AG reporter assay (agonist mode); settings: for Emax: read-out: LNCaP-AR-wt AG MAX % Stim; for EC50: pEC50 = −Log10(EC50 in Molar), read-out: LNCaP-AR-wt AG pEC50 (converted)
[5] = antagonist mode, maximum % inhibition of R1881 control response over tested concentration range
[6] = agonist mode, maximum % stimulation over tested concentration range
[7] = maximum % inhibition of R1881 control response over the tested concentration range
[8] = maximum % stimulation (agonist response) over the tested concentration range

T1 sequence (P10275 whole entry F877L): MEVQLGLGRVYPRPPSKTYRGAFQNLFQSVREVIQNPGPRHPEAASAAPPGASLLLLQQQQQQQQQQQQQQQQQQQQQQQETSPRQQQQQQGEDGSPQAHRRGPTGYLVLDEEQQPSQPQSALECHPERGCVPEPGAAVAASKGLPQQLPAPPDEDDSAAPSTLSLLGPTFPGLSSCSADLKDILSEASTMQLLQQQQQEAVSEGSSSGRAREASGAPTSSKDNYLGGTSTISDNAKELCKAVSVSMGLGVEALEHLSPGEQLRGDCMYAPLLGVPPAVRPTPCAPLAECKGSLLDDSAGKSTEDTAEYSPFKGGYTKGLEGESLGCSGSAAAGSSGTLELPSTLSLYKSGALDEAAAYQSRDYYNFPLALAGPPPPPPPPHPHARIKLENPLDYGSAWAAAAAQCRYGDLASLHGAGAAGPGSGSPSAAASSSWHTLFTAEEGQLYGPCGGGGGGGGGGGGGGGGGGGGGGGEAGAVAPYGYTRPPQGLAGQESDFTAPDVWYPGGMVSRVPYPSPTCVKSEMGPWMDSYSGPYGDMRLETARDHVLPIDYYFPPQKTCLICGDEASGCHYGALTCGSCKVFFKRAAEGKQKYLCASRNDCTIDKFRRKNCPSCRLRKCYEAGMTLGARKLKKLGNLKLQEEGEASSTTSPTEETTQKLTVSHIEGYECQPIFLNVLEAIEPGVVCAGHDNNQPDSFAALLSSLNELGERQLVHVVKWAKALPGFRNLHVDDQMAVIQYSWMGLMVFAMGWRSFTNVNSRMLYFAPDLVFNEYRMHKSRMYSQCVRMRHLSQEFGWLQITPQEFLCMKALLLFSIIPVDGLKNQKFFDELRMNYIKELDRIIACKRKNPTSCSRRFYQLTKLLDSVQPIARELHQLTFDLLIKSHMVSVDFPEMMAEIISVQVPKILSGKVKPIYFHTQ
T2 sequence (P10275 whole entry): as the sequence (P10275 whole entry F877L) above, with L877F counted along it

SMILES	Emax [1, 5] [%]	IC50 ([1]; antagonist mode) [nM]	Emax [2, 6] [%]	EC50 ([2]; agonist mode) [nM]	Emax [3, 5] [%]	IC50 ([3]; antagonist mode) [nM]	Emax [4, 6] [%]	EC50 ([4]; agonist mode) [nM]	Emax [1, 7] [%]	Emax [2, 8] [%]	Emax [3, 7] [%]	Emax [4, 8] [%]
CN1CC[C@H](CNC(=O)c2ccc(N3C(=S)N(c4cnc(C#N)c(C(F)(F)F)c4)C(=O)C34CCC4)cc2F)C1 [Cpd 218, 4-[6-[6-cyano-5-(trifluoromethyl)-3-pyridyl]-5-oxo-7-thioxo-6,8-diazaspiro[3.4]octan-8-yl]-2-fluoro-N-[[(3R)-1-methylpyrrolidin-3-yl]methyl]benzamide]	99.6	912	0.1	> 15100	102	1170	0	> 15100				
COc1cc(N2C(=O)C3(CCC3)N(c3ccc(CC4CCNCC4)cc3)C2=S)cnc1C#N [Cpd 236, 3-Methoxy-5-[8-oxo-5-(4-piperidin-4-ylmethyl-phenyl)-6-thioxo-5,7-diaza-spiro[3.4]oct-7-yl]-pyridine-2-carbonitrile]	101	269	0.2	> 15100	103	457	0.6	> 15100				
N#Cc1ncc(N2C(=O)C3(CCC3)N(c3ccc(CN4CCOCC4)cc3)C2=S)cc1C(F)(F)F [Cpd 217, 5-[8-[4-(morpholinomethyl)phenyl]-5-oxo-7-thioxo-6,8-diazaspiro[3.4]octan-6-yl]-3-(trifluoromethyl)pyridine-2-carbonitrile]	100	355	0.1	> 15100	102	372	0.4	> 15100				
CN1CCC(C)(Oc2ccc(N3C(=S)N(c4cnc(C#N)c(C(F)(F)F)c4)C(=O)C34CCC4)cc2)CC1 [Cpd 143, 5-[8-[4-[(1,4-dimethyl-4-piperidyl)oxy]phenyl]-5-oxo-7-thioxo-6,8-diazaspiro[3.4]octan-6-yl]-3-(trifluoromethyl)pyridine-2-carbonitrile]		355		> 15100		1350		> 15100	101	0.4	103	-0.2
N#Cc1ncc(N2C(=O)C3(CCC3)N(c3ccc(C(=O)NC[C@@H]4CCCNC4)c(F)c3)C2=S)cc1C(F)(F)F [Cpd 202, 4-[6-[6-cyano-5-(trifluoromethyl)-3-pyridyl]-5-oxo-7-thioxo-6,8-diazaspiro[3.4]octan-8-yl]-2-fluoro-N-[[(3R)-3-piperidyl]methyl]benzamide]	101	603	0	> 15100	102	1100	-0.1	> 15100				
CN1CCC12CC(Oc1ccc(N3C(=S)N(c4cnc(C#N)c(C(F)(F)F)c4)C(=O)C34CCC4)cc1)C2 (stereo not shown) [Cpd 166, 5-[8-[4-[(3-methyl-3-azaspiro[3.3]heptan-6-yl)oxy]phenyl]-5-oxo-7-thioxo-6,8-diazaspiro[3.4]octan-6-yl]-3-(trifluoromethyl)pyridine-2-carbonitrile]		200		> 15100		331		> 15100	101	0.1	102	0.2
Cc1cc(N2C(=O)C3(CCC3)N(c3ccc(CC4CCN(C)CC4)cc3)C2=S)cnc1C#N [Cpd 238, 3-methyl-5-[8-[4-[(1-methyl-4-piperidyl)methyl]phenyl]-5-oxo-7-thioxo-6,8-diazaspiro[3.4]octan-6-yl]pyridine-2-carbonitrile]	101	813	0.1	> 15100	101	1410	0	> 15100				
N#CCN1CCC(Oc2ccc(N3C(=S)N(c4cnc(C#N)c(Cl)c4)C(=O)C34CCC4)cc2)CC1 [Cpd 51, 3-chloro-5-[8-[4-[[1-(cyanomethyl)-4-piperidyl]oxy]phenyl]-5-oxo-7-thioxo-6,8-diazaspiro[3.4]octan-6-yl]pyridine-2-carbonitrile]		24.5		> 15100		53.7		> 15100	101	1.7	98	2.3
